Measured values: ChEMBL document CHEMBL1201862, “PubChem BioAssay data set” (2004)
Activity calls are given as the source filed them.

Columns and labels:
[1] = molecular target: Albumin (Bos taurus, UniProt P02769); assay: Counterscreen for inhibitors of T-cell receptor (TCR)-CD3 interaction: Fluorescence-based biochemical high throughput dose response assay to identify inhibitors of T-cell receptor (TCR)-CD3 interaction using a TAMRA-labeled BSA probe.; type: functional
[2] = molecular target: T1, Protein RecA (Mycobacterium tuberculosis, UniProt P9WHJ3); assay: Fluorescence Cell-Free Homogeneous Dose Retest to Identify Inhibitors of RecA-Intein Splicing Activity. [Related pubchem assays (depositor defined):AID2097, AID2223, AID489010, AID492950]; type: functional
T1 sequence (P9WHJ3 whole entry): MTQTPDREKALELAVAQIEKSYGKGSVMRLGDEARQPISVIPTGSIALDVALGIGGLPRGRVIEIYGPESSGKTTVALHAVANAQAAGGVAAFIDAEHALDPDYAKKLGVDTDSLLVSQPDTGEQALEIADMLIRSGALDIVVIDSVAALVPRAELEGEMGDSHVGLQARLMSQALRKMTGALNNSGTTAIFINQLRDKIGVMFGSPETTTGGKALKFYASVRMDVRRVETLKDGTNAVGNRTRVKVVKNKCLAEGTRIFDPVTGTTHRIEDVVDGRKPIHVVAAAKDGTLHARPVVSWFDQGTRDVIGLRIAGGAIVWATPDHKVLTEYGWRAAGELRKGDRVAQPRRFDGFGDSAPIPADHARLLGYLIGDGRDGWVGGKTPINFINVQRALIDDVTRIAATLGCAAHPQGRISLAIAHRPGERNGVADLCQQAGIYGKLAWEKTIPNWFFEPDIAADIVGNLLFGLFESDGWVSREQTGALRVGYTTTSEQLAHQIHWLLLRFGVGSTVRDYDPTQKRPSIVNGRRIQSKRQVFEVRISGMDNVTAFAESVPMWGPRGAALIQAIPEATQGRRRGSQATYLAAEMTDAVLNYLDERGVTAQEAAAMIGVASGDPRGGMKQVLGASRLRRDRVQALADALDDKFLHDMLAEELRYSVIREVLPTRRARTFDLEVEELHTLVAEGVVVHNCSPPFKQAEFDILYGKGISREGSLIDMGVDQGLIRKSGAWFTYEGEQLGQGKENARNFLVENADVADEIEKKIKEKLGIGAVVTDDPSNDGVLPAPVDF

[3] = viability loss in HEK293T cells – cell-based, cherry-picks, cytotoxicity control for HIV Vif inhibitor project, dose response (AID 652208); type: functional
[4] = test system: HEK293; assay: cells; conditions: Homo sapiens
[5] = molecular target: Induced myeloid leukemia cell differentiation protein Mcl-1 (Homo sapiens, UniProt Q07820); type: functional
Sequence of Induced myeloid leukemia cell differentiation protein Mcl-1 (Q07820 whole entry): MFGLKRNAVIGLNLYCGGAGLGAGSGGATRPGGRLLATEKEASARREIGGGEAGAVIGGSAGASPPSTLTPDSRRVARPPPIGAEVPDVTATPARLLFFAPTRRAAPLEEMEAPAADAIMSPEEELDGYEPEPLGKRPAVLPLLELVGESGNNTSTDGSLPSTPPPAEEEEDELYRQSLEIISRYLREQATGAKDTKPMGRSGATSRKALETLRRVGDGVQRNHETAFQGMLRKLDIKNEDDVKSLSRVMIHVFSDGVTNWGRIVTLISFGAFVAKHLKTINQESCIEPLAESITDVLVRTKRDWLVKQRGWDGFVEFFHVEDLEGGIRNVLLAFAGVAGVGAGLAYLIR

[6] = test system: HEK293; assay: cells; conditions: Homo sapiens; remark: listed apart in the source
[7] = viability of HCT116 lacking mutant beta-catenin – cell-based, human colon tumor, dose response (AID 1045); type: functional;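 also: HCT116 colon tumor cells with beta catenin knocked out; cells exposed to compound for 60 hours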
[8] = molecular target: T2, Replicative DNA helicase DnaB (Mycobacterium tuberculosis, UniProt P9WMR3); assay: DnaB intein splicing inhibitors, dose response, biochemical, cell-free fluorescence (AID 449749); type: functional
T2 sequence (P9WMR3 whole entry): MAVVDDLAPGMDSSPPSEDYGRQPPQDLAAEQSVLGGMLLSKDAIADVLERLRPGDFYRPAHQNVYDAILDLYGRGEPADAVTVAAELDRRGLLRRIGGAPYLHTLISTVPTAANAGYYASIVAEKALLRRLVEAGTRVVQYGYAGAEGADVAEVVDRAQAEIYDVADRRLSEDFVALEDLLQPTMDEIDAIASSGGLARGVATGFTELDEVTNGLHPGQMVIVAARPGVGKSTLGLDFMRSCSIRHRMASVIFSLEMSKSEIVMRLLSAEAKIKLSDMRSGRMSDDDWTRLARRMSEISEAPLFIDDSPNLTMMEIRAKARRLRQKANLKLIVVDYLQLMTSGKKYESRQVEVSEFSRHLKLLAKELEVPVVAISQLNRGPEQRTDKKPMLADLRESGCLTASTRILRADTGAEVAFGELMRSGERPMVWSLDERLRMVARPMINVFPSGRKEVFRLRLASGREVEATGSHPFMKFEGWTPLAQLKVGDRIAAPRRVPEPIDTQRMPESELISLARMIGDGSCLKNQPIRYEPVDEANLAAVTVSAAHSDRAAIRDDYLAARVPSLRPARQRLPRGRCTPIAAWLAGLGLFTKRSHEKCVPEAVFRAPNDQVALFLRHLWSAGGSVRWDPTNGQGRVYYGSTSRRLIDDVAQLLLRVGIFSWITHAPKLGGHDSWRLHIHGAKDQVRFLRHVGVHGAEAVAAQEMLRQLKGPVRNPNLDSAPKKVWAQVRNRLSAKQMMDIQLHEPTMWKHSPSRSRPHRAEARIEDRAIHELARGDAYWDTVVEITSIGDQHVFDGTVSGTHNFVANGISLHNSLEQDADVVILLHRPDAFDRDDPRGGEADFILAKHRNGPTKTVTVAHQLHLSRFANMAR

[9] = viability of PTEN-deleted HCT116 cells – cell-based, HCT116 PTEN knockout, dose response (AID 1047); type: functional;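 also: HCT116 colon tumor cells with PTEN knocked out; cells exposed to compound for 60 hours before readout; potency for loss of cell viability measured by luminescence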
[10] = molecular target: T3, Short transient receptor potential channel 4 (Mus musculus, UniProt Q9QUQ5); assay: calcium entry via TRPC4 opening agents – cell-based, HEK293 TRPC4/mu-opioid, Fluo-4 calcium, dose response (AID 434937); type: functional
T3 sequence (Q9QUQ5 whole entry): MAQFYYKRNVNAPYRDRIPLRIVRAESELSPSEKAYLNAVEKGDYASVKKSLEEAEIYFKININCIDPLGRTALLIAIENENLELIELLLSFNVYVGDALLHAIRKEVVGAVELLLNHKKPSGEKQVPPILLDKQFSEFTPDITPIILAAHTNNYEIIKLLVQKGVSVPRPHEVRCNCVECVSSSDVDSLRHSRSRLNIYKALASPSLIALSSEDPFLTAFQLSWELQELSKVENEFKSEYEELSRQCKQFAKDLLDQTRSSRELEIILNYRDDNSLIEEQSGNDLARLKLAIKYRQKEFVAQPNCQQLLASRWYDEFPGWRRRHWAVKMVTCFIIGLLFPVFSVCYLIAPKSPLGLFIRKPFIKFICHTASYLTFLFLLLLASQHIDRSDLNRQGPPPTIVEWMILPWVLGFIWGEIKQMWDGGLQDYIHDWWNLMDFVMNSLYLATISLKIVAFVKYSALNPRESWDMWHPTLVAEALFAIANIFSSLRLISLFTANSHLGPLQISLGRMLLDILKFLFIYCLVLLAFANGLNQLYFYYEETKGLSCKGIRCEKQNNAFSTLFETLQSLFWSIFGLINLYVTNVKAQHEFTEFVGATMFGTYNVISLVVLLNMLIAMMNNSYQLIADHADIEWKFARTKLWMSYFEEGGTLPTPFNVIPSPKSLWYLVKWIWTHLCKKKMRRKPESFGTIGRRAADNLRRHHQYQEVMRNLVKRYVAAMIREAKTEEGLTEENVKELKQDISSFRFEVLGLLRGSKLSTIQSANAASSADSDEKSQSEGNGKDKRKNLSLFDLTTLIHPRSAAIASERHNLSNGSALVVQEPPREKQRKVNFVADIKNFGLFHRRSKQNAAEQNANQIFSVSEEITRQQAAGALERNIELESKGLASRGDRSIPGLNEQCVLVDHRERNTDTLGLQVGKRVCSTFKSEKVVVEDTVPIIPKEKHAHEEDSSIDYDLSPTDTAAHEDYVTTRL

[11] = molecular target: T4, Heat shock factor protein 1 (Mus musculus, UniProt P38532); assay: decrease of HSF1-responsive luciferase luminescence – cell-based, NIH3T3, dose retest, confirmation (AID 2382); type: functional;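 also: NIH3T3 fibroblasts with HSF1-driven luciferase reporter stressed by proteasome inhibitor MG132; luminescence from HSF1-driven luciferase expression after 8 hours of MG132 stress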
T4 sequence (P38532 whole entry): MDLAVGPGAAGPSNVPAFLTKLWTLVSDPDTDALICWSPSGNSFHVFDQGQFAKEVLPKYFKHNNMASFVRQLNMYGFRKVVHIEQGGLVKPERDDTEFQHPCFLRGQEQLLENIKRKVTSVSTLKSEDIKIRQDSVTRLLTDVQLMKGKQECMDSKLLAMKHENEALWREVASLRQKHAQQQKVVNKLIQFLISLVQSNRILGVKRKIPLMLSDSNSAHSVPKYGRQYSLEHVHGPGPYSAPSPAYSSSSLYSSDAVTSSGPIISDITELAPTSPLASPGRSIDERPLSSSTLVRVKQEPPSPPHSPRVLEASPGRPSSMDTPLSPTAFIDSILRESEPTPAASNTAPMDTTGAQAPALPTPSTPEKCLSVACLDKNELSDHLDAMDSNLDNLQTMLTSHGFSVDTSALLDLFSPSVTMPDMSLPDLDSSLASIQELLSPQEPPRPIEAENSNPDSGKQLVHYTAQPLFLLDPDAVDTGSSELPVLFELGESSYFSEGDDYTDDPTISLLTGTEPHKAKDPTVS

[12] = molecular target: T5, Streptokinase A (Streptococcus pyogenes serotype M1, UniProt P10520); assay: viability-normalized secreted streptokinase activity reduction – plasminogen activation absorbance, OD405, dose response (AID 1914); type: functional, Streptococcus pyogenes M1 GAS;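 also: secreted streptokinase activity via plasminogen activation per viability signal from cell pellet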
T5 sequence (P10520 whole entry): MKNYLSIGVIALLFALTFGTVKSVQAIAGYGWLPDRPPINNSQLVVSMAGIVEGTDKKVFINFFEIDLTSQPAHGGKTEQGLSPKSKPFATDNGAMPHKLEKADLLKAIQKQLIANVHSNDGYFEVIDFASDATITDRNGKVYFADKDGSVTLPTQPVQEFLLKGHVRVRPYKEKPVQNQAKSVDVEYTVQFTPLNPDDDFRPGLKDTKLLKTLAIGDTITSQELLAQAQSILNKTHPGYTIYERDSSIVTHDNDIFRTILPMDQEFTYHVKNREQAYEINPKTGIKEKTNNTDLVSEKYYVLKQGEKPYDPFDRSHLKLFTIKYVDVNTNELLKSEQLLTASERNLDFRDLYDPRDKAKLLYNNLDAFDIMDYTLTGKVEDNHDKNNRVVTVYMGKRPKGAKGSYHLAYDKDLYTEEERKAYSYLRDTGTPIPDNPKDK

[13] = test system: Streptococcus sp. 'group A'; assay: Streptococcus pyogenes SK(-)GAS viability under kanamycin – luminescence, BacTiterGlo, confirmation, counter-screen for streptokinase expression inhibitor project, dose response (AID 1900); type: functional, organism-based
[14] = test system: Streptococcus; assay: GAS UMAA2166 growth inhibition – luminescence, BacTiterGlo, counter-screen for streptokinase expression inhibitor project, dose response (AID 1915); type: functional, organism-based;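 also: potency for reduction of bacterial viability or growth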

Sequence of Albumin (P02769 whole entry): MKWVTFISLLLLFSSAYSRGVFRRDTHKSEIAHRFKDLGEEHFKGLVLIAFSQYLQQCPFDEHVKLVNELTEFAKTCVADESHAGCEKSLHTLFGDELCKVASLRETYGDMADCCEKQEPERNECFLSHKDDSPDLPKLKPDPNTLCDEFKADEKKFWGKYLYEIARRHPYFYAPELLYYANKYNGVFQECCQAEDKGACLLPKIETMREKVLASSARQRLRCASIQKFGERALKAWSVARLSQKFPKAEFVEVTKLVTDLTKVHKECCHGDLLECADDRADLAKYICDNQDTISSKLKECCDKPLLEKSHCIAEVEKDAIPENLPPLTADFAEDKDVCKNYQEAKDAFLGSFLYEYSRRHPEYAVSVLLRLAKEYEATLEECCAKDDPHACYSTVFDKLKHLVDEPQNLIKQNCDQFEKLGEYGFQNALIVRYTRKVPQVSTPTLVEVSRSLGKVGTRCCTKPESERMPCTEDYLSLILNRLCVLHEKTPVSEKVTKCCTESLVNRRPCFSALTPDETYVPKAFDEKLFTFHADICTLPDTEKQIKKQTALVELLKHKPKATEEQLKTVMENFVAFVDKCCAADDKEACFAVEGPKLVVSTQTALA

| SMILES | IC50 [1] | EC50 [2] | AC50 [3] | EC50 [4] | IC50 [5] | EC50 [6] | EC50 [7] | AC50 [8] | EC50 [9] | EC50 [10] | EC50 [11] | EC50 [12] | EC50 [13] | EC50 [14] |
| --- | --- | --- | --- | --- | --- | --- | --- | --- | --- | --- | --- | --- | --- | --- |
| CCC1=NN(C(=O)c2cccc([N+](=O)[O-])c2)C(O)(c2ccc(C)cc2)C1 (stereo not given) | > 94.1 µM (inactive) |  |  |  |  |  |  |  |  |  |  |  |  |  |
| COc1ccc(NC(=O)Cn2ncc(Cl)c(Cl)c2=O)cc1S(=O)(=O)N1CCOCC1 |  | 10.1 µM (active) | 10.8 µM (active) | > 59.6 µM (inactive) | 6.5 µM (active) | > 59.6 µM (inactive) | 5.71 µM (active) | 44.2 µM (active) | 7.27 µM (active) |  |  |  |  |  |
| COc1ccc(C(=O)NNC(=S)NC(=O)c2cccs2)cc1 | > 94 µM (inactive) |  |  |  |  |  |  |  |  | 10.6 µM (active) | > 195 µM (not active) | > 150 µM (not active) | 3.71 µM (active) | 15.1 µM (active) |
